According to patent US20260191817A1, “FIBROBLAST MODULATORS IN STROMA-RICH TUMORS” (UNIVERSITEIT GENT, priority 2022, published 2026):
Entries after “also recorded” stand apart in the source; their conditions may differ.

Key:
[1] = tested on: HCA2 hTERT dermal fibroblasts; assay: AFM spheroid stiffness, HCA2 hTERT dermal fibroblasts; format: cell-based; settings: HCA2 hTERT normal dermal fibroblasts; 1 μM, 48 h
Method: (§1) Selectivity for CAFs with respect to normal fibroblasts and other cell types was assessed by performing an identical experiment with normal fibroblasts and other cell types, where compounds were considered selective for CAFs if they only modulate CAF stiffness.
(§2) U-shaped, 384-well ULA plates (cat. no. MS-9384UZ, S-bio) were seeded with a suspension of cell-specific culture media with cells. Cells were allowed to form spheroids for an appropriate time under treatment conditions before use in experiments. Cell culture dishes (cat. no. 734-2814, VWR) were filled with collagen gel and placed at 37° C. for an appropriate time to allow solidification. For each condition, spheroids were pooled in one cell culture dish. The medium was removed (stored at 37° C.) to promote attachment of the bottom of each spheroid to the collagen gel. The cell culture dishes were incubated at 37° C. After the incubation period, the stored medium was carefully (prevent detachment of spheroids) added to the dishes.
(§3) Mechanical measurements were performed using an atomic force microscope. To indent the spheroids an in-house made colloidal probe was used. Force curves were collected using an appropriate setpoint and probe speed (depending on the stiffness of the spheroids). On each spheroid multiple force curves were collected. Collected curves were then processed using the JPK DP software. Young's modulus was extracted from the force curves. All experiments were performed in biological triplicate.
(§4) To generate 3D cultures mimicking the complexity and pathophysiology of in vivo tumors, spheroids were used (cfr. point 4). Spheroids are considered to better simulate cellular heterogeneity, nutrient and oxygen gradients, cell-cell interactions, cell-matrix interactions, gene expression profiles, stromal interactions, therapeutic responses, multicellular resistance, drug penetration and anti-apoptotic signaling.

4T1-Luc aggregates = assay: Chick heart invasion (CHI) assay with 4T1-Luc aggregates; format: cell-based, mouse; settings: 1 μM, in duplo
Method: Chick heart invasion assays were performed as described earlier (Bracke et al. 2014). Precultured heart fragments of 9-day-old chicken embryos were confronted with MCF-7/6 aggregates on top of a semi-solid agar at 37° C. overnight, after which the confronting pairs were cultured in suspension for 8 days at 37° C., 10% CO2 in presence or absence of a test compound (in duplo). This procedure can also be performed with aggregates of 4T1-Luc cells, for which the suspension culture of the confronting pairs is performed for 3.5 days. All compounds were evaluated at 1 μM and 100 nM; depending on the outcome higher or lower concentrations were subsequently evaluated. […] Sections of the confrontation cultures were stained with hematoxylin-eosin are blinded and scored by a trained person (Bracke et al., 2014).
In the chick heart invasion assay cancer cells are confronted with a fragment of normal tissue, so as not to neglect the contribution of the host tissue in the micro-ecosystem that governs tumor behavior. […] After eight days for MCF-7/6, or another period depending on the cell type, the interaction between the cancer cells and the PHF is evaluated histologically and classified along a 5-grades subjective scale (Bracke et al. 2014). […] Compounds that inhibit invasion of confronting cancer cells i.e. from III/IV to 0/I/II, are determined as anti-invasive. […]

[2] = tested on: primary human atrial fibroblasts; assay: AFM spheroid stiffness, primary human atrial fibroblasts; format: cell-based; settings: 1 μM, 48 h
Method: as §1, §2, §3, §4

[3] = tested on: 13B2 hTERT, CT5.3 hTERT, HCA2 hTERT, MCF-7/6 and 4T1-Luc cells; assay: 2D CellTiter-Glo Cell Viability Assay; format: cell-based; settings: 48 h of treatment
Method: The half maximal inhibitory concentration (IC50) of A1 was evaluated using a CellTiter-Glo® 2.0 Cell Viability Assay (cat. no. G9243, Promega) and a CellTiter-Glo® 3D Cell Viability Assay (cat. no. G9681, Promega). 13B2 hTERT cells (2D: 2×10^5, 3D: 8×10^4) were plated in each well of a Nunc™ MicroWell™ 96-Well, Nunclon Delta-Treated, Flat-Bottom Microplate (cat. no. 167008, Thermo Fisher Scientific) for 2D experiments or 96-well ULA plate (cat. no. MS-9096UZ, S-bio) in a volume of 90 μL/well. A1 was serially diluted in the appropriate medium to 10× the final concentrations. For each treatment condition, 10 μL was added to 3 replicate wells (final concentrations ranging from 1-100 μM) and plates were incubated for 48 h.
The CellTiter-Glo Cell Viability Assay was performed according to manufacturer's instructions. Briefly, the plates and the CellTiter-Glo® Reagent were equilibrated to room temperature (RT). The CellTiter-Glo® Reagent was added to each well in a 1:1 (v/v) ratio. For 2D experiments, cell lysis was induced by placing the plates on an orbital shaker for 2 min, followed by stabilization of the luminescent signal for 10 min. […] Afterwards, the luminescence was measured using a Synergy™ HTX Multi-Mode Microplate Reader (BioTek). The IC50 value was determined using the Graphpad Prism software. […]

[4] = tested on: primary glioblastoma (GBM) cells; assay: AFM spheroid stiffness, primary glioblastoma cells; format: cell-based, human; settings: 48 h
Method: as §1, §2, §3, §4

[5] = tested on: MCF-7/6 breast cancer cells; assay: AFM spheroid stiffness, MCF-7/6 breast cancer cells; format: cell-based, human; settings: 48 h
Method: as §1, §2, §3, §4

[6] = tested on: human invasive MCF-7/6 mammary carcinoma cells; assay: Chick heart invasion (CHI) assay with MCF-7/6 aggregates; format: cell-based; settings: MCF7/6, 192 h, lowest concentration at which an anti-invasive effect (histological grade I or II) was observed, 8 days, read-out: Lowest active concentration
Method: Chick heart invasion assays were performed as described earlier (Bracke et al. 2014). Precultured heart fragments of 9-day-old chicken embryos were confronted with MCF-7/6 aggregates on top of a semi-solid agar at 37° C. overnight, after which the confronting pairs were cultured in suspension for 8 days at 37° C., 10% CO2 in presence or absence of a test compound (in duplo). This procedure can also be performed with aggregates of 4T1-Luc cells, for which the suspension culture of the confronting pairs is performed for 3.5 days. All compounds were evaluated at 1 μM and 100 nM; depending on the outcome higher or lower concentrations were subsequently evaluated. Upon fixation in Bouin-Hollande, the cultures were dehydrated and embedded in paraffin. Sections of the confrontation cultures were stained with hematoxylin-eosin are blinded and scored by a trained person (Bracke et al., 2014).
In the chick heart invasion assay cancer cells are confronted with a fragment of normal tissue, so as not to neglect the contribution of the host tissue in the micro-ecosystem that governs tumor behavior. As such, precultured heart tissue fragments (PHFs), dissected from 9-day-old chicken embryos, may be confronted with aggregates of human invasive MCF-7/6 mammary carcinoma cells or other cells in the presence of a certain concentration of a test compound. After eight days for MCF-7/6, or another period depending on the cell type, the interaction between the cancer cells and the PHF is evaluated histologically and classified along a 5-grades subjective scale (Bracke et al. 2014). Grades III and IV are typical for invasion, while grades 0, I and II correspond to absence of invasion. Compounds that inhibit invasion of confronting cancer cells i.e. from III/IV to 0/I/II, are determined as anti-invasive. Possible alternative assays generally known in the art are the type I collagen invasion assay, wound healing assay and the matrigel invasion assay.
The chick heart invasion (CHI) assay is a phenotypic assay that confronts precultured heart tissue fragments (PHFs, ‘normal tissue’), obtained from 9-day-old chicken embryos, with aggregates of human invasive MCF-7/6 mammary carcinoma cells (Bracke et al. 2014). In the control situation, the MCF-7/6 cells encircle, invade and destroy the PHF over an 8-day period. Invasion in this assay is defined as the progressive occupation and destruction of the PHF by the MCF-7/6 cells. Three-dimensional reconstruction of this interaction is obtained by microscopic analysis of all consecutive histological sections of the culture. The read-out is an invasion score according to a 5-grades histological scale.
The CHI closely reproduces the temporal, spatial and histological invasion patterns in man. The co-culture set-up probes for effects on both tumor cells and host tissue, and thus interrogates potential pharmacological targets in either interaction partner. Its use of histological evaluation allows discerning anti-invasive action from cytotoxicity or other effects.
We have submitted flavones B1-B4, flavanones B5-B8 and the intermediate 2′-hydroxychalcones A9, All and A12 to the chick heart invasion assay using MCF-7/6 aggregates. All compounds were evaluated at 1 μM and 100 nM; depending on the outcome higher or lower concentrations were subsequently evaluated. […] This table also includes CHI data on chalcones A1, A2 and A5.

Structure (SMILES)	spheroid stiffness [1]	Histological invasion grade (4T1-Luc aggregates)	spheroid stiffness [2]	IC50 value, metabolic activity of 2D cultures [3]	spheroid stiffness ([4]; 1 μM)	spheroid stiffness ([4]; 0.03-3 μM)	spheroid stiffness ([5]; 1 μM)	spheroid stiffness ([5]; 0.03-3 μM)	minimal effective concentration [6] [µM]
COc1cc(C(=O)/C=C/c2ccc(F)cc2)cc(OC)c1OC [Compound A1, 3-(4-Fluorophenyl)-1-(3,4,5-trimethoxyphenyl)prop2-en-1-one]	no effect	I/II-III	did not alter; also recorded: no effect	high micromolar	no effect	nor did it change	no effect	not result in a change	0.01
COc1cc2oc(-c3ccc(F)cc3)cc(=O)c2c(OC)c1OC [Compound B1, 2-(4-Fluorophenyl)-5,6,7-trimethoxy-4H-chromen-4-one]	no effect	II/II	did not alter; also recorded: no effect	high micromolar	no effect	–	no effect	–	0.01
